Measured values taken from PubChem BioAssay AID652002 (Sanford-Burnham Center for Chemical Genomics, 2013).
Activity calls are given as the source filed them. The rule behind the calls is not given here.

How the values were obtained:
[1] = target: Tumor necrosis factor receptor superfamily member 10B (Homo sapiens) (UniProt O14763); experiment: TRAIL sensitizers in caspase-8 expressing neuroblastoma cells, dose response, NB7 cells plus caspase-8, luminescence, panel (AID 652002); details: NB7 neuroblastoma +caspase-8, TRAIL sensitization, luminescence viability; NB7+Caspase-8; with TRAIL, mean of runs
NB7+Caspase-8 = experiment: as above; details: NB7 neuroblastoma +caspase-8, TRAIL sensitization, luminescence viability, with TRAIL
[2] = as above; details: NB7 neuroblastoma +caspase-8, no TRAIL, compound-alone cytotoxicity counter-screen, luminescence viability, NB7+Caspase-8
[3] = run 1, single replicate panel EC50
[4] = run 2, single replicate panel EC50

Chain of Tumor necrosis factor receptor superfamily member 10B (Homo sapiens) (O14763 whole entry, looked up): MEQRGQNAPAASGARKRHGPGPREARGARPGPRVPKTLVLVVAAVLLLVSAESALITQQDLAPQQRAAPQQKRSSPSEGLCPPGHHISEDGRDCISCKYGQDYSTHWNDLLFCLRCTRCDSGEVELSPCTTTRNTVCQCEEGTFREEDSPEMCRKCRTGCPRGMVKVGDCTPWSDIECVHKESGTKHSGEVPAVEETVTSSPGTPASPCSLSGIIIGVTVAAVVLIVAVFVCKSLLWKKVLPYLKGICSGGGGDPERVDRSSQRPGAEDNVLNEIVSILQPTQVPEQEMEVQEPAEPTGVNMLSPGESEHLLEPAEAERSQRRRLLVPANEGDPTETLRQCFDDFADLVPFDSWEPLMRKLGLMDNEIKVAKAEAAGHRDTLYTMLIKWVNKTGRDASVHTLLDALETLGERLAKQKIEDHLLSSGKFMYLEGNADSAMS

With `COC(=O)CSc1nc2cc(C)ccc2cc1C#N` the EC50 [1] was “inactive”, the EC50 (NB7+Caspase-8; [3]) was greater than 12.5 µM and the EC50 (NB7+Caspase-8; [4]) was 7.44 µM. For the same molecule, the EC50 ([2]; mean of runs) was > 12.5 µM (inactive), the EC50 [2, 3] was greater than 12.5 µM and the EC50 [2, 4] was greater than 12.5 µM.

With `COc1ccc(/C=N/Nc2nc3ccccc3c(=O)n2-c2ccccc2)cc1OC` the EC50 [1] was “inactive”, the EC50 (NB7+Caspase-8; [3]) was greater than 12.5 µM and the EC50 (NB7+Caspase-8; [4]) was 9.41 µM. The EC50 ([2]; mean of runs) was “inactive”, the EC50 [2, 3] was 7.35 µM and the EC50 [2, 4] was 9.86 µM.

With `O=C(N/N=C/c1cccc(OC(=O)c2ccco2)c1)c1ccc(F)cc1` the EC50 [1] was “inactive”, the EC50 (NB7+Caspase-8; [3]) was 4.82 µM and the EC50 (NB7+Caspase-8; [4]) was 4.55 µM. The EC50 ([2]; mean of runs) was “inactive”, the EC50 [2, 3] was 4.46 µM and the EC50 [2, 4] was 7.04 µM.

In the case of `CCCCCCCn1c2c(c(=N)c3ccccc31)CCC2`, the EC50 [1] is reported as “inactive”, the EC50 (NB7+Caspase-8; [3]) is reported as greater than 12.5 µM and the EC50 (NB7+Caspase-8; [4]) is reported as 4.65 µM. The EC50 ([2]; mean of runs) was > 12.5 µM (inactive), the EC50 [2, 3] was greater than 12.5 µM and the EC50 [2, 4] was greater than 12.5 µM.

With `Cc1nc2cc(NC(=O)c3ccco3)ccc2n1C` the EC50 [1] was > 12.5 µM (inactive), the EC50 (NB7+Caspase-8; [3]) was greater than 12.5 µM and the EC50 (NB7+Caspase-8; [4]) was greater than 12.5 µM. The EC50 ([2]; mean of runs) was “inactive”, the EC50 [2, 3] was greater than 12.5 µM and the EC50 [2, 4] was 11.5 µM.

With `Cc1ccc(NC(=O)c2ccccc2O)cc1` the EC50 [1] was “inactive”, the EC50 (NB7+Caspase-8; [3]) was greater than 12.5 µM and the EC50 (NB7+Caspase-8; [4]) was 10.5 µM. The EC50 ([2]; mean of runs) was “inactive”, the EC50 [2, 3] was 11.1 µM and the EC50 [2, 4] was 7.77 µM.

For `COc1ccccc1C=NNC(=O)NN=Cc1ccccc1OC`, the EC50 [1] was “inactive”, the EC50 (NB7+Caspase-8; [3]) was greater than 12.5 µM and the EC50 (NB7+Caspase-8; [4]) was 7.21 µM. For the same molecule, the EC50 ([2]; mean of runs) was “inactive”, the EC50 [2, 3] was 8.5 µM and the EC50 [2, 4] was 10.3 µM.

For `CCOc1ccc(/C=C/C(=O)Nc2cccc(C(C)=O)c2)cc1`, the EC50 [1] was > 12.5 µM (inactive), the EC50 (NB7+Caspase-8; [3]) was greater than 12.5 µM and the EC50 (NB7+Caspase-8; [4]) was greater than 12.5 µM. The EC50 ([2]; mean of runs) was > 12.5 µM (inactive), the EC50 [2, 3] was greater than 12.5 µM and the EC50 [2, 4] was greater than 12.5 µM.

With `COc1ccc(-c2cc(C(=O)N/N=C/c3cccnc3)c3ccccc3n2)cc1` the EC50 [1] was > 12.5 µM (inactive), the EC50 (NB7+Caspase-8; [3]) was greater than 12.5 µM and the EC50 (NB7+Caspase-8; [4]) was greater than 12.5 µM. For the same molecule, the EC50 ([2]; mean of runs) was “inactive”, the EC50 [2, 3] was 11.3 µM and the EC50 [2, 4] was greater than 12.5 µM.

In the case of `O=C(NCC1CCCO1)c1ccc2c3n(nc2c1)-c1ccccc1CO3` (stereo unspecified), the EC50 [1] is reported as “inactive”, the EC50 (NB7+Caspase-8; [3]) is reported as greater than 12.5 µM and the EC50 (NB7+Caspase-8; [4]) is reported as 8.3 µM. The EC50 ([2]; mean of runs) was > 12.5 µM (inactive), the EC50 [2, 3] was greater than 12.5 µM and the EC50 [2, 4] was greater than 12.5 µM.

With `COc1cc(NC(=O)c2cncc(-c3ccc(C#N)cc3)c2)cc(C(=O)Nc2cccc(C(F)(F)F)c2)c1` the EC50 [1] was > 12.5 µM (inactive), the EC50 (NB7+Caspase-8; [3]) was greater than 12.5 µM and the EC50 (NB7+Caspase-8; [4]) was greater than 12.5 µM. For the same molecule, the EC50 ([2]; mean of runs) was > 12.5 µM (inactive), the EC50 [2, 3] was greater than 12.5 µM and the EC50 [2, 4] was greater than 12.5 µM.

For `COc1cccc(N/C=C/C(=O)c2ccc(Cl)cc2)c1`, the EC50 [1] was “inactive”, the EC50 (NB7+Caspase-8; [3]) was greater than 12.5 µM and the EC50 (NB7+Caspase-8; [4]) was 11.1 µM. The EC50 ([2]; mean of runs) was “inactive”, the EC50 [2, 3] was 10.4 µM and the EC50 [2, 4] was 10.3 µM.

In the case of `COc1cccc(NC(=O)Nc2nccc(C)n2)c1`, the EC50 [1] is reported as “inactive”, the EC50 (NB7+Caspase-8; [3]) is reported as greater than 12.5 µM and the EC50 (NB7+Caspase-8; [4]) is reported as 4.33 µM. The EC50 ([2]; mean of runs) was > 12.5 µM (inactive), the EC50 [2, 3] was greater than 12.5 µM and the EC50 [2, 4] was greater than 12.5 µM.

In the case of `O=C(Nc1ccc2c(c1)OCCO2)NC1CCCCC1`, the EC50 [1] is reported as “inactive”, the EC50 (NB7+Caspase-8; [3]) is reported as greater than 12.5 µM and the EC50 (NB7+Caspase-8; [4]) is reported as 12 µM. The EC50 ([2]; mean of runs) was > 12.5 µM (inactive), the EC50 [2, 3] was greater than 12.5 µM and the EC50 [2, 4] was greater than 12.5 µM.

With `Cc1cc2nc3ccc(N(C)C)cc3nc2cc1N` the EC50 [1] was “inactive”, the EC50 (NB7+Caspase-8; [3]) was greater than 12.5 µM and the EC50 (NB7+Caspase-8; [4]) was 10.9 µM. The EC50 ([2]; mean of runs) was > 12.5 µM (inactive), the EC50 [2, 3] was greater than 12.5 µM and the EC50 [2, 4] was greater than 12.5 µM.

For `CCOC(=O)[C@]12Cc3cc4ccccc4cc3[C@H]1N(Cc1ccccc1)C(=O)c1cc(OC)ccc12`, the EC50 [1] was > 12.5 µM (inactive), the EC50 (NB7+Caspase-8; [3]) was greater than 12.5 µM and the EC50 (NB7+Caspase-8; [4]) was greater than 12.5 µM. The EC50 ([2]; mean of runs) was > 12.5 µM (inactive), the EC50 [2, 3] was greater than 12.5 µM and the EC50 [2, 4] was greater than 12.5 µM.

For `CCCCc1nc(NCCN)c(C#N)c2c1CSC(C)(C)C2`, the EC50 [1] was > 12.5 µM (inactive), the EC50 (NB7+Caspase-8; [3]) was greater than 12.5 µM and the EC50 (NB7+Caspase-8; [4]) was greater than 12.5 µM. The EC50 ([2]; mean of runs) was > 12.5 µM (inactive), the EC50 [2, 3] was greater than 12.5 µM and the EC50 [2, 4] was greater than 12.5 µM.

For `Cc1cccc(CC(=O)Nc2cc(C)c3c(=O)oc4ccccc4c3n2)c1`, the EC50 [1] was > 12.5 µM (inactive), the EC50 (NB7+Caspase-8; [3]) was greater than 12.5 µM and the EC50 (NB7+Caspase-8; [4]) was greater than 12.5 µM. The EC50 ([2]; mean of runs) was > 12.5 µM (inactive), the EC50 [2, 3] was greater than 12.5 µM and the EC50 [2, 4] was greater than 12.5 µM.

In the case of `C#CC(=O)CC1(CN(Cc2ccccc2)C(=O)OC(C)(C)C)CCCCC1`, the EC50 [1] is reported as “inactive”, the EC50 (NB7+Caspase-8; [3]) is reported as 3.12 µM and the EC50 (NB7+Caspase-8; [4]) is reported as 7.51 µM. The EC50 ([2]; mean of runs) was “inactive”, the EC50 [2, 3] was 7.26 µM and the EC50 [2, 4] was 1.52 µM.

For `CN(C)c1ccc(N/C=C/C(=O)c2ccco2)cc1`, the EC50 [1] was “inactive”, the EC50 (NB7+Caspase-8; [3]) was 7.78 µM and the EC50 (NB7+Caspase-8; [4]) was 6.42 µM. The EC50 ([2]; mean of runs) was “inactive”, the EC50 [2, 3] was 7.62 µM and the EC50 [2, 4] was greater than 12.5 µM.

In the case of `CCOC(=O)C(=C1Nc2ccccc2N1)n1c(-c2cccnc2)nc2ccccc21`, the EC50 [1] is reported as “inactive”, the EC50 (NB7+Caspase-8; [3]) is reported as greater than 12.5 µM and the EC50 (NB7+Caspase-8; [4]) is reported as 9.47 µM. The EC50 ([2]; mean of runs) was “inactive”, the EC50 [2, 3] was greater than 12.5 µM and the EC50 [2, 4] was 10.5 µM.
